Test results taken from US10053453B2, “Compounds and their use as BACE inhibitors” (AstraZeneca AB, priority 2014, dated 2018).

How the values were obtained:
Human BACE2 = molecular target: T1, Human BACE2 (Homo sapiens, UniProt Q9Y5Z0); assay: TR-FRET assay; format: biochemical; details: enzyme 2.7 μg/mL, substrate 100 nM, pH4.5
T1 construct: the soluble part of the human β-Secretase2 (AA1-AA473) was cloned using BACE2(1-473)-(AVT)-Fc-pDEST12.2 mammalian expression vector; AVT linker (C); made in house
T1 sequence (Q9Y5Z0 21-473): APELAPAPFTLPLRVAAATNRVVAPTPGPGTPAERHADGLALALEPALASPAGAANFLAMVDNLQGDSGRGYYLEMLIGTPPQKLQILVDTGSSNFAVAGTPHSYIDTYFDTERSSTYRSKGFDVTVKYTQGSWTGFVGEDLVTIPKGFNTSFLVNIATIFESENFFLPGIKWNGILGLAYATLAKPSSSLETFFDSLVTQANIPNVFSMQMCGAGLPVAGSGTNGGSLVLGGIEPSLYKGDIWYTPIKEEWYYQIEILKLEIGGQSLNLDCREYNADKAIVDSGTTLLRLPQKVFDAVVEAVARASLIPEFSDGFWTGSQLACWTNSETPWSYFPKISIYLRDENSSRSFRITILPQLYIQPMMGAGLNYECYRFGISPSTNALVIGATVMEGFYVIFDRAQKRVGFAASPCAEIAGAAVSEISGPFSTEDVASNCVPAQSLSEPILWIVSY

Human BACE1 = molecular target: T2, Human BACE1 (Homo sapiens, UniProt P56817); assay: Diluted TR-FRET assay; format: biochemical; details: 50 times less enzyme, 6.5 h reaction time at r.t.; read-out: IC50 BACE1 (dil. TR-FRET)
T2 construct: the soluble part of the human β-Secretase1 (AA1-AA460) was cloned using the BACE1(1-460)-(AVT)-Fc-pGEN-IRES-neo mammalian expression vector; AVT linker (C); made in house
T2 sequence (P56817 22-460): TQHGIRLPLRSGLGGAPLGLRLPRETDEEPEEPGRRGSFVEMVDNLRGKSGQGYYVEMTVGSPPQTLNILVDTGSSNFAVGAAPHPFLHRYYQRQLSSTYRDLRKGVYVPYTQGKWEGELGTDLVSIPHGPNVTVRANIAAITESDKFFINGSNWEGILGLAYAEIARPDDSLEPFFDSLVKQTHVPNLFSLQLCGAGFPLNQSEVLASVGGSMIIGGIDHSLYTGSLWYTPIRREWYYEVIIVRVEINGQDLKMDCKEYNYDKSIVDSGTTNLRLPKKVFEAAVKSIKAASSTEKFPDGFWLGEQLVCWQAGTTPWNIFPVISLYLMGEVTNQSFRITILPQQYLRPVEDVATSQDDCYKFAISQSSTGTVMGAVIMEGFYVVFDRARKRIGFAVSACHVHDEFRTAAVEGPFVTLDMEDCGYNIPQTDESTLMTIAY
Summary of the method: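 Human BACE1 (residues 1-460) was fused to an IgG1 Fc affinity tag and stably expressed in HEK 293 cells. Using a Multidrop Combi, 7 μL enzyme was added to 0.8 μL compound in dimethylsulphoxide and incubated 10 minutes. Reactions were stopped with 5.5 μL NaOAC Stop solution (pH 9), and TR-FRET fluorescence was read on a Pherastar HTRF module.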

SH-SY5Y cells = assay: sAPPβ release assay; details: Homo sapiens, SH-SY5Y, read-out: IC50 Cell (sAPPβ release, nM), SH-SY5Y cells, compounds incubated 16-17 h
Description: Cells were thawed and seeded at a concentration of around 10000 cells/well in DMEM/F-12 with Glutamax, 10% FCS and 1% non-essential amino acids to a 384-well tissue culture treated plate, 30 μL cell susp/well. The cell plates were then incubated for 7-24 h at 37° C., 5% CO2.
The cell medium was removed, followed by addition of 50 μL compound diluted in DMEM/F-12 with Glutamax, 10% FCS, 1% non-essential amino acids to a final cone of 0.5% DMSO. The compounds were incubated with the cells for 16-17 h (overnight) at 37° C., 5% CO2.
Meso Scale Discovery (MSD) plates were used for the detection of sAPP release. MSD sAPPβ plates were blocked in 1% BSA in Tris wash buffer for 1 h on shake at r.t. and washed 1 time in Tris wash buffer. […] The MSD plates were incubated with shaking at r.t. for 2 h and the media discarded. 10 μL detection antibody was added (1 nM) per well followed by incubation with shaking at r.t. for 2 h and then discarded. 35 μL Read Buffer was added per well and the plates were read in a Meso Scale Discovery SECTOR6000 Imager.

SMILES	IC50 (Human BACE2)	IC50 (Human BACE1)	IC50 (SH-SY5Y cells)
CO[C@H]1CC[C@]2(CC1)Cc1ccc(CCC(C)C)cc1C21COC(N)=N1 (stereo partly drawn) [Compound 51, (1r,4r)-6′-isopentyl-4-methoxy-3′H,5″H-dispiro[cyclohexane-1,2′-indene-1′,4″-oxazol]-2″-amine]	306 nM	188 nM	20.6 nM
[2H]C1([2H])OC(N)=NC12c1cc(/C=N/OCCC)ccc1C[C@]21CC[C@@H](OC)CC1 (stereo partly drawn) [Compound 53, (E)-2″-amino-4-methoxy-3′H,5″H-dispiro[cyclohexane-1,2′-indene-1′,4″-oxazole]-5″,5″-d2-6′-carbaldehyde O-propyl oxime]	652 nM	665 nM	24.8 nM
[2H]C1([2H])OC(N)=NC12c1cc(/C=N/OCC)ccc1C[C@]21CC[C@@H](OC)CC1 (stereo partly drawn) [Compound 56, (E)-2″-amino-4-methoxy-3′H,5″H-dispiro[cyclohexane-1,2′-indene-1′,4″-oxazole]-5″,5″-d2-6′-carbaldehyde O-ethyl oxime]	3240 nM	1630 nM	57 nM
[2H]C1([2H])OC(N)=NC12c1cc(-c3cncnc3)ccc1C[C@]21CC[C@@H](O)[C@H](C)C1 (stereo partly drawn) [Compound 57, (1R,3R,4R)-2″-amino-3-methyl-6′-(pyrimidin-5-yl)-3′H,5″H-dispiro[cyclohexane-1,2′-indene-1′,4″-oxazol]-5″,5″-d2-4-ol]	> 5000 nM	341 nM	94.8 nM
[2H]C1([2H])OC(N)=NC12c1cc(-c3cc(C#N)cc(OC)c3)ccc1C[C@]21CC[C@@H](O)[C@H](C)C1 (stereo partly drawn) [Compound 58, 3-((1R,3R,4R)-2″-amino-4-hydroxy-3-methyl-3′H,5″H-dispiro[cyclohexane-1,2′-indene-1′,4″-oxazol]-6′-yl-5″,5″-d2)-5-methoxybenzonitrile]	139 nM	301 nM	102 nM
CO[C@H]1CC[C@]2(CC1)Cc1ccc(-c3cccnn3)cc1C21COC(N)=N1 (stereo partly drawn) [Compound 59, (1r,4r)-4-methoxy-6′-(pyridazin-3-yl)-3′H,5″H-dispiro[cyclohexane-1,2′-indene-1′,4″-oxazol]-2″-amine]	4990 nM	2250 nM	128 nM
[2H]C1([2H])OC(N)=NC12c1cc(/C(C)=N/OCCC(F)(F)F)ccc1C[C@]21CC[C@@H](OC)CC1 (stereo partly drawn) [Compound 60, (E)-1-((1r,4r)-2″-amino-4-methoxy-3′H,5″H-dispiro[cyclohexane-1,2′-indene-1′,4″-oxazol]-6′-yl-5″,5″-d2)ethan-1-one O-(3,3,3-trifluoropropyl)oxime]	> 5000 nM	> 5000 nM	206 nM
[2H]C1([2H])OC(N)=NC12c1cc(/C=N/OC3CCC3)ccc1C[C@]21CC[C@@H](OC)CC1 (stereo partly drawn) [Compound 61, (E)-2″-amino-4-methoxy-3′H,5″H-dispiro[cyclohexane-1,2′-indene-1′,4″-oxazole]-5″,5″-d2-6′-carbaldehyde O-cyclobutyl oxime]	3440 nM	1960 nM	207 nM
CO[C@H]1CC[C@]2(CC1)Cc1ccc(-c3ccnnc3)cc1C21COC(N)=N1 (stereo partly drawn) [Compound 62, (1r,4r)-4-methoxy-6′-(pyridazin-4-yl)-3′H,5″H-dispiro[cyclohexane-1,2′-indene-1′,4″-oxazol]-2″-amine]	> 5000 nM	> 5000 nM	250 nM
[2H]C1([2H])OC(N)=NC12c1cc(-c3cncnc3)ccc1C[C@@]21CC[C@H](O)[C@@H](C)C1 (stereo partly drawn) [Compound 63, (1S,3S,4S)-2″-amino-3-methyl-6′-(pyrimidin-5-yl)-3′H,5″H-dispiro[cyclohexane-1,2′-indene-1′,4″-oxazol]-5″,5″-d2-4-ol]	> 5000 nM	1460 nM	266 nM
CO[C@H]1CC[C@]2(CC1)Cc1ccccc1C21COC(N)=N1 (stereo partly drawn) [Compound 64, (1r,4r)-4-methoxy-3′H,5″H-dispiro[cyclohexane-1,2′-indene-1′,4″-oxazol]-2″-amine]	> 5000 nM	> 5000 nM	307 nM
[2H]C1([2H])OC(N)=NC12c1cc(/C(C)=N/OCC)ccc1C[C@]21CC[C@@H](OC)CC1 (stereo partly drawn) [Compound 65, (E)-1-((1r,4r)-2″-amino-4-methoxy-3′H,5″H-dispiro[cyclohexane-1,2′-indene-1′,4″-oxazol]-6′-yl-5″,5″-d2)ethan-1-one O-ethyl oxime]	> 5000 nM	> 5000 nM	> 5000 nM
[2H]C1([2H])OC(N)=N[C@]12c1cc(-c3cnccn3)ccc1C[C@]21CC[C@@H](OC)[C@H](C)C1 [Compound 69, (1R,1′R,3R,4R)-4-methoxy-3-methyl-6′-(pyrazin-2-yl)-3′H,5″H-dispiro[cyclohexane-1,2′-indene-1′,4″-oxazol]-5″,5″-d2-2″-amine]	> 5000 nM	423 nM	17 nM
[2H]C1([2H])OC(N)=N[C@]12c1cc(-c3cncnc3C)ccc1C[C@@]21CC[C@H](OC)[C@@H](C)C1 [Compound 70, (1S,1′R,3S,4S)-4-methoxy-3-methyl-6′-(4-methylpyrimidin-5-yl)-3′H,5″H-dispiro[cyclohexane-1,2′-indene-1′,4″-oxazol]-5″,5″-d2-2″-amine]	> 5000 nM	1130 nM	26.6 nM
[2H]C([2H])([2H])O[C@H]1CC[C@@]2(Cc3ccc(-c4cnccn4)cc3[C@]23N=C(N)OC3([2H])[2H])C[C@@H]1C [Compound 72, (1S,1′R,3S,4S)-4-(methoxy-d3)-3-methyl-6′-(pyrazin-2-yl)-3′H,5″H-dispiro[cyclohexane-1,2′-indene-1′,4″-oxazol]-5″,5″-d2-2″-amine]	> 5000 nM	203 nM	3.6 nM
[2H]C([2H])([2H])O[C@@H]1CC[C@]2(Cc3ccc(-c4cccnc4)cc3[C@]23N=C(N)OC3([2H])[2H])C[C@H]1C [Compound 80, (1R,1′R,3R,4R)-4-(methoxy-d3)-3-methyl-6′-(pyridin-3-yl)-3′H,5″H-dispiro[cyclohexane-1,2′-indene-1′,4″-oxazol]-5″,5″-d2-2″-amine]	600 nM	45 nM	< 0.16 nM
[2H]C([2H])([2H])O[C@@H]1CC[C@]2(Cc3ccc(-c4cnccn4)cc3[C@]23N=C(N)OC3([2H])[2H])C[C@H]1C [Compound 81, (1R,1′R,3R,4R)-4-(methoxy-d3)-3-methyl-6′-(pyrazin-2-yl)-3′H,5″H-dispiro[cyclohexane-1,2′-indene-1′,4″-oxazol]-5″,5″-d2-2″-amine]	> 5000 nM	423 nM	17 nM
[2H]C1([2H])CC2(N=C(N)O1)c1cc(-c3cncnc3)ccc1C[C@]21CC[C@@H](OC)CC1 (stereo partly drawn) [Compound 82, (1r,4r)-4-methoxy-6′-(pyrimidin-5-yl)-5″,6″-dihydro-3′H-dispiro[cyclohexane-1,2′-indene-1′,4″-[1,3]oxazin]-6″,6″-d2-2″-amine]	1790 nM	138 nM	23 nM
[2H]C1([2H])CC2(N=C(N)O1)c1cc(-c3cncc(C#N)c3)ccc1C[C@]21CC[C@@H](OC)CC1 (stereo partly drawn) [Compound 84, 5-((1r,4r)-2″-amino-4-methoxy-5″,6″-dihydro-3′H-dispiro[cyclohexane-1,2′-indene-1′,4″-[1,3]oxazin]-6′-yl-6″,6″-d2)nicotinonitrile]	103 nM	88.7 nM	4.8 nM
